Assay [1] deals with BromoTag-Brd2. The experiment in a line: Dose–response degradation assay (western blot, 6 h) in heterozygous BromoTag-Brd2 HEK293 cells. The assay is classed as cell-based, human. The following applies: for pDC50 (Ab: Brd^4BD2 L387A) / pDC50 (Ab: BromoTag-Brd2) / DC50: 6 h; for pDC50 (Ab: Brd^4BD2 L387A) / pDC50 (Ab: BromoTag-Brd2): eight-point 10 μM to 1 nM, mean ±S.E. of two repeats; for DC50: read-out: DC50 of BromoTag-Brd2 degradation (DC50, 6h), single stereoisomers. (Immunoblotting shows a protein as a band on a membrane.)

The target of the next assay is T1, VHL (VCB protein) (Homo sapiens, UniProt P40337).
T1 construct: N-terminally His6-tagged VHL (54–213); His6 (N, cleaved yes); made in house; host or cells: E. coli
The experiment in a line: FP competitive binding assay, binary binding. To be noted: compound alone; mean ±S.E.M., N = 4; read-out: binary affinity to VHL Kd.

For a further assay, the target named is T2, VHL with Brd4^BD2 L387A (Homo sapiens, UniProt O60885+P40337, L387A).
T2 construct: N-terminally His6-tagged VHL (54–213); His6 (N, cleaved yes); made in house; host or cells: E. coli
The experiment in a line: FP competitive binding assay, ternary complex binding (compound preincubated with Brd4^BD2 L387A). The following applies: for α (FP binding): cooperativity, Kd binary/Kd ternary, supplementary CSV; for Kd: preincubated with Brd4^BD2 L387A, mean ±S.E.M., N = 4, read-out: ternary binding affinity Kd; for cooperativity (α): α = Kd binary/Kd ternary.

The subject of assay [2] is BromoTag-Brd2. The experiment in a line: Time course degradation assay (western blot, 0–36 h) in heterozygous BromoTag-Brd2 HEK293 cells. In kind it is cell-based, human. The following applies: 500 nM 47, 1 μM 48, over 36 h. Here is the method: Heterozygous BromoTag-Brd2 HEK293 cells were plated at a density of 5 × 10^5 cells per well of a six-well healthy plate a day prior to initiating the time course assay. […] The time point range was between 0 and 36 h. Treatment was applied in a staggered fashion to enable all time points to be harvested at the same time.
All cells were harvested on ice with RIPA lysis and extraction buffer (Thermo Fisher Scientific, 89901) supplemented with protease inhibitor cocktail (Merck, 11697498001) and Benzonase Nuclease (Sigma, E1014) before being stored at −20 °C prior to use. Total protein quantity was determined using the BCA protein assay (#23225, Pierce, Rockford, Illinois). The protein concentration was determined using the BCA assay (Thermo Fisher Scientific, 23225). The samples were then prepared and loaded onto NuPAGE 4–12% bis–tris Midi gels (Thermo Fisher Scientific, WG1403A), followed by the transfer of proteins onto nitrocellulose membranes (EMD Millipore). The membranes were blocked for 1 h prior to incubation with the primary antibodies using 5% Milk TBST. […] All western blots were analyzed for band intensities using Image Lab from Bio-Rad (LI-COR, Biosciences). The data extracted from these blots were then plotted and analyzed using Prism (v. 8.2.0, GraphPad).

A further assay relates to 22RV1 cells. The experiment in a line: CellTiter-Glo 2.0 cell viability assay, 22RV1. In kind it is cell-based, human. To be noted: Homo sapiens; 22RV1, 48 Hours, mean ±S.E.M, N = 2; read-out: pEC50 (cell viability) (converted). Background: Cellular ATP, detected with luciferase, serves as a proxy for viable cell number.
The subject of assay [3] is untagged Brd2, Brd3, Brd4. The experiment in a line: Off-target degradation of endogenous BET proteins (western blot) in heterozygous BromoTag-Brd2 HEK293 cells. In kind it is cell-based, human. To be noted: 1 nM to 10 μM, 6 h, diastereomeric mixtures. The text has this: To establish the BromoTag platform and support the degrader structure–activity relationships (SARs) to identify the best compound, we sought a practical and simple system that enables us to best optimize not only the degradation efficiency but also the selectivity profile of our degraders. To this end, the endogenous BET family protein Brd2 was chosen as a model target due to the availability of a well-established antibody for Brd2 detection, and the expression of a single protein isoform detected as a single band in the western blot.[24] Because Brd2 contains endogenous bromodomains and is degraded by 1 and other BET PROTACs, we reasoned that a heterozygous knock-in cell line allows us to monitor simultaneously both on-target degradation (BromoTagged-Brd2) and off-target degradation (untagged Brd2) using the same antibody. Together with the potential off-target degradation of the other BET proteins Brd3 and Brd4, this system thus enables us to best monitor protein degradation selectivity. We therefore decided to add the BromoTag at the N-terminus of the endogenous Brd2 gene locus using CRISPR knock-in methodologies, thereby yielding a chimeric protein bearing three bromodomains (the exogenous BromoTag, in addition to the endogenous Brd2^BD1 and Brd2^BD2). Hereafter, we refer to on-target activity as the degradation of BromoTag-Brd2 and off-target activity as any degradation of either untagged Brd2 or endogenous Brd3 or Brd4.
All dose–response degradation assays were performed on the genotype-verified heterozygous BromoTag-Brd2 HEK293 cell line. Heterozygous BromoTag-Brd2 HEK293 cells were plated at a density of 5 × 10^5 cells per well of a six-well healthy plate a day before initiation of the titration experiment. PROTAC compounds were dissolved in DMSO at a concentration of 10 mM; from these stock concentrations, PROTAC compounds were diluted to appropriate concentrations using DMSO in the range of 10 μM to 1 nM. The compounds were then added to 2 mL of DMEM (Invitrogen, Carlsbad, CA, USA) supplemented with 10% (v/v) FBS (Thermo Fisher, Waltham, MA, USA) and 1% (v/v) penicillin/streptomycin (pen/strep) (#15140122, Thermo Fisher, Waltham, MA, USA) and added to the cells while initiating the experiment. Control compounds such as MZ1 and cis-MZ1 were similarly dissolved in DMSO to an appropriate concentration. All titration experiments were performed for a total of 6 h prior to being harvested and were kept at 37 °C, 5% CO2, and 95% humidity once treatment was applied until right before harvesting. The cells were washed twice with PBS before being harvested.
All cells were harvested on ice with RIPA lysis and extraction buffer (Thermo Fisher Scientific, 89901) supplemented with protease inhibitor cocktail (Merck, 11697498001) and Benzonase Nuclease (Sigma, E1014) before being stored at −20 °C prior to use. Total protein quantity was determined using the BCA protein assay (#23225, Pierce, Rockford, Illinois). The protein concentration was determined using the BCA assay (Thermo Fisher Scientific, 23225). The samples were then prepared and loaded onto NuPAGE 4–12% bis–tris Midi gels (Thermo Fisher Scientific, WG1403A), followed by the transfer of proteins onto nitrocellulose membranes (EMD Millipore). The membranes were blocked for 1 h prior to incubation with the primary antibodies using 5% Milk TBST. The membranes were probed for Brd2 (Abcam, Ab139690, 1:1000), Brd3 (Abcam, Ab50818, 1:4000), Brd4 (Abcam, Ab128874, 1:1000), or our polyclonal Brd4^BD2 L387A antibody. Following overnight incubation with the primary antibodies at 4 °C, the membranes were incubated with secondary antibodies (anti-rabbit, Abcam AB216773, 1:5000 or anti-mouse, Abcam AB216774, 1:5000) and hFABTM rhodamine anti-tubulin antibody (Biorad, 12004165, 1:10,000) for 1 h and then imaged with a Bio-Rad imager (LI-COR Biosciences). All western blots were analyzed for band intensities using Image Lab from Bio-Rad (LI-COR, Biosciences). […]

In general, DC50 refers to the concentration at which degradation of the target reaches its halfway point. A word on the Kd: it is the equilibrium constant for the complex coming apart.

Consider `CC[C@@H](C(=O)NCCOCCOCCOCC(=O)N[C@H](C(=O)N1C[C@H](O)C[C@H]1C(=O)NCc1ccc(-c2scnc2C)cc1)C(C)(C)C)[C@@H]1N=C(c2ccc(Cl)cc2)c2c(sc(C)c2C)-n2c(C)nnc21` [AGB3 (48), (2S,4R)-1-((2S,17R)-2-(tert-Butyl)-17-((S)-4-(4-chlorophenyl)-2,3,9-trimethyl-6H-thieno[3,2-f][1,2,4]triazolo[4,3-a][1,4]diazepin-6-yl)-4,16-dioxo-6,9,12-trioxa-3,15-diazanonadecanoyl)-4-hydroxy-N-(4-(4-methylthiazol-5-yl)benzyl)pyrrolidine-2-carboxamide], for which, in the assay on BromoTag-Brd2 [1], the “pDC50 (Ab: Brd^4BD2 L387A)” value was 6.5 ± 0.3, the “pDC50 (Ab: BromoTag-Brd2)” value was determined as 6.7 ± 0.1 and the DC50 lay within 210 to 290 nM. In addition, on VHL (VCB protein), the Kd was determined as 102 nM. At VHL with Brd4^BD2 L387A, the “α (FP binding)” value is 10.9, the Kd stood at 9 nM and the “cooperativity (α)” value stood at 10.9.

For the compound `CC[C@@H](C(=O)OCCOCCCOCC(=O)N[C@H](C(=O)N1C[C@H](O)C[C@H]1C(=O)N[C@@H](C)c1ccc(-c2scnc2C)cc1)C(C)(C)C)[C@@H]1N=C(c2ccc(Cl)cc2)c2c(sc(C)c2C)-n2c(C)nnc21` [AGB2 (47), 2-(3-(2-(((S)-1-((2S,4R)-4-Hydroxy-2-(((S)-1-(4-(4-methylthiazol-5-yl)phenyl)ethyl)carbamoyl)pyrrolidin-1-yl)-3,3-dimethyl-1-oxobutan-2-yl)amino)-2-oxoethoxy)propoxy)ethyl (R)-2-((S)-4-(4-chlorophenyl)-2,3,9-trimethyl-6H-thieno[3,2-f][1,2,4]triazolo[4,3-a][1,4]diazepin-6-yl)butanoate], in the assay with BromoTag-Brd2 [1], the “pDC50 (Ab: Brd^4BD2 L387A)” value is recorded as 9.0 ± 0.4, the “pDC50 (Ab: BromoTag-Brd2)” value is 8.6 ± 0.2 and the DC50 was in the range of 1 to 3 nM. Besides, in the assay with BromoTag-Brd2 [2], the “extent of BromoTag-Brd2 degradation in the time course experiment” value was “near-complete target degradation”. On VHL (VCB protein), the Kd came out at 45 nM. Also, at VHL with Brd4^BD2 L387A, the “α (FP binding)” value worked out at 3.6, the Kd came out at 12 nM and the “cooperativity (α)” value was 3.6.

In the case of `Cc1ncsc1-c1ccc(CNC(=O)[C@@H]2C[C@H](O)CN2C(=O)[C@@H](NC(=O)COCCOCCOCCNC(=O)C[C@@H]2N=C(c3ccc(Cl)cc3)c3c(sc(C)c3C)-n3c(C)nnc32)C(C)(C)C)cc1` [cis-MZ1], in the assay with 22RV1 cells, the EC50 was over 10000 nM.

For the compound `Cc1ncsc1-c1ccc([C@H](C)NC(=O)[C@@H]2C[C@@H](O)CN2C(=O)[C@@H](NC(=O)COCCCOCCOC(=O)C(C)C2N=C(c3ccc(Cl)cc3)c3c(sc(C)c3C)-n3c(C)nnc32)C(C)(C)C)cc1` (relative stereo) [ME-OARV-771 (24), 2-(3-(2-(((S)-1-((2S,4R)-4-Hydroxy-2-(((S)-1-(4-(4-methylthiazol-5-yl)phenyl)ethyl)carbamoyl)pyrrolidin-1-yl)-3,3-dimethyl-1-oxobutan-2-yl)amino)-2-oxoethoxy)propoxy)ethyl (R*)-2-((S*)-4-(4-chlorophenyl)-2,3,9-trimethyl-6H-thieno[3,2-f][1,2,4]triazolo[4,3-a][1,4]diazepin-6-yl)propanoate], in the assay on BromoTag-Brd2 [1] (supplementary CSV), the “pDmax (%) (Ab: Brd4BD2 L387A)” value was found to be 91% and the “pDmax (%) (Ab:Brd2)” value came to 91%. Also, the “off-target degradation of untagged Brd2 or the other endogenous BET proteins” value in assay [3] is “induced undesired off-target degradation”.
